Data reported in patent US20220356525A1, “METHODS OF DETERMINING WHETHER PATIENTS SUFFERING FROM ACUTE MYELOID LEUKEMIA WILL ACHIEVE A RESPONSE TO AN MYC-TARGETING THERAPY” (INSERM (INSTITUT NATIONAL DE LA SANTÉ ET DE LA RECHERCHE …, priority 2019, published 2022).

What was measured:
IMS-M2 and U937 cells [1] = settings: 50 μM 5-CH3 THF; MTHFR-directed shRNAs
[2] = tested on: CRISPR/Cas9-edited KG1a clones; assay: OTX015 sensitivity and colony formation of CRISPR/Cas9-edited KG1a clones with MTHFR variants; type: cell-based, human
Description: Error bars represent mean±SD. Experiment performed at least two independent times.
(§1) Error bars represent mean±SD.
Additional information is provided in the supplementary material and methods section.
Finally, we engineered a tractable MLL-AF9-driven mouse model of AML in which Mtfhr genotype status was either homozygous wild-type, heterozygous or homozygous knockout.

[3] = tested on: MLL-translocated primary patient samples with AML; assay: OTX015 sensitivity of primary AML patient samples; type: cell-based, human
Description: as §1
(§2) To investigate further the relationship between folic acid starvation and increased BET inhibitor resistance, we compiled a panel of AML cell lines harboring diverse genetic alterations. […] The effect of folic acid removal was also evaluated in cell lines treated either with a second BET inhibitor, JQ1, or with THZ-1, a covalent inhibitor of CDK7, another key factor in transcriptional elongation at super-enhancer regions and a strong inhibitor of MYC expression (data not shown). […] Therefore, we studied selective suppression of BRD4 by short hairpin RNA (shRNA) in two AML cell lines.
Previous studies have extensively characterized two common MTHFR genetic variants, C677T and A1298C, encoding MTHFR enzyme variants with reduced activity, resulting in hyperhomocysteinemia in human carriers. In particular, the homozygous variant 677 TT and 1298 CC genotypes are present in ˜10% of Caucasians and display only 30% and 60% of the homozygous wild-type 677 CC and 1298 AA enzyme activities, respectively (16, 17). […] Five KG1a clones either 1) wild-type 677 CC and 1298 AA, 2) heterozygous 677 CT or 1298 AC, or 3) homozygous 677 TT or 1298 CC, were selected and genotyped via allelic discrimination technique (FIG. 1A). […] Finally, we engineered a tractable MLL-AF9-driven mouse model of AML in which Mtfhr genotype status was either homozygous wild-type, heterozygous or homozygous knockout.

BRD4 = BRD4 (Homo sapiens, UniProt O60885); settings: previous studies; cited from earlier work
OCI-AML2 cells = assay: Pooled CRISPR/Cas9 epigenetic screen with JQ1; type: cell-based, human
Description: OCI-AML2 cells were seeded into six-well plates at a density of 3×10^6 cells per well and transduced at MOI 0.2. […] 24 hours post-transduction, cells were replated into puromycin-containing media. A sample was collected at 48 hours post-puromycin to confirm library coverage in the transduced population. Transduced cells were expanded in puromycin for 10 days before drug, when the transduced population was split into vehicle (DMSO) and JQ1 conditions and maintained for two weeks. Deep sequencing was performed by Hudson Alpha Institute for Biotechnology on an Illumina Nextseq platform (75 bp, single-ended) to identify differences in library composition. Additional information is provided in the supplementary material and methods section.

[4] = tested on: AML cell lines (KG1a, IMS-M2, and U937); assay: AML cell line sensitivity to BET/CDK7 inhibitors in standard versus nutrient-deprived (folic acid-starved) media; type: cell-based, human; settings: for AML cell line sensitivity: folic acid withdrawal
Description: BET proteins interact with acetylated histones in active regulatory domains (promoters and enhancers) and promote RNA PolII activity. Despite the general nature of this mechanism, BET inhibitors have shown selective effects on gene expression through suppression of […] and MYC-related transcriptional programs (8, 11, 12). Two cohorts of AML patients (TCGA-LAML, n=198 and GSE14468, n=526) were queried with multiple gene sets related to MYC transcriptional programs as well as vitamin, amino acid, and nucleotide metabolism using single sample Gene Set Enrichment Analysis (ssGSEA). Correlation between gene sets was queried across all patients from each cohort to pinpoint potential crosstalk between active MYC programs and specific metabolic pathways (data not shown).
as §2

MLL-AF9-driven AML cells = assay: MLL-AF9-driven AML mouse models treated with JQ1; type: in vivo, mice
Description: (E) MLL-AF9-transformed GFP-positive granulomonocytic progenitors (Sca-1^−/c-KIT^+/CD16/32^+/CD34^+/MPO^+) from homozygous wild-type […], or heterozygous (+/−) and homozygous (−/−) Mthfr knockout mice transplanted into sublethally-irradiated recipient mice before treatment with vehicle or 50 mg/kg JQ1 for 7 days. Proportion of GFP-positive MLL-AF9 leukemic cells in bone marrow from five mice per group. p-value by Mann-Whitney test. n.s, nonsignificant (p>0.05). Error bars represent mean±SD.
The French National Committee on Animal Care reviewed and approved all mouse experiments. Sample size was influenced by historical penetrance and consistency of MLL-AF9-driven in vivo models. For the Mthfr knockout AML mouse model, BALB/cJ mice were purchased from Charles River Laboratories. Each recipient mouse was transplanted with transduced Scal^−/c-Kit^+ myeloid progenitors sorted from the total bone marrow of three donor mice. Approximatively two months post-transplantation, sick mice were euthanized and bone marrow harvested before flow-based sorting of MLL-AF9-positive granulo-monocytic bone marrow progenitor population (GFP^+/Sca-1^−/c-Kit^+/Cd16/32^+/Cd34^+) and PCR-based confirmation of Mthfr knockout status. 0.2×10^6 MLL-AF9-positive Mthfr^+/+, Mthfr^+/−, and Mthfr^−/− cells were then reinjected into sublethally-irradiated secondary recipient mice treated daily by intraperitoneal injection with 50 mg/kg JQ1 (10% DMSO+90% G5W).
For folate starvation experiments, 5-week old male C57BL/6J mice were given regular or folate-deficient casein-reconstituted diet (Safe-Diets) for 4 weeks before sublethal irradiation (350cGy) and injection with 0.2×10^6 MLL-AF9-positive L-GMP cells before treatment with 35 mg/kg or 50 mg/kg JQ1 (10% DMSO+90% G5W) for 7 days. For Mthfr knockdown experiments, MLL-AF9-positive L-GMP cells were infected with a control or two Mthfr-directed shRNAs cloned into an MSCV-miRE-SV40-eBFP vector modified from the MSCV-miRE_shBRD9_561-SV40-GFP vector (Addgene, #75139) by substitution of the GFP cassette with an eBFP fluorescent marker. 0.2×10^6 infected cells were injected into sublethally-irradiated 5-week old C57BL/6J recipient mice. Additional information is provided in the supplementary material and methods section.

[5] = tested on: AML cell lines: KG1a, OCI-AML2, and U937; assay: OTX015 response and colony number after MTHFR-directed shRNAs in AML cell lines; type: cell-based, human
Description: Dietary folic acid undergoes several conversion steps into intermediate metabolites before generation of 5,10-methylene-THF (5,10-CH2 THF). 5,10-CH2 THF is then either reduced in the folate cycle or oxidized in the formate-producing tetrahydrofolate salvage cycle, depending on cellular needs. Despite the fact that folic acid can ultimately be processed through these two interconnected pathways, we observed in our previous ssGSEA analyses that active MYC gene signatures were highly correlated with activation of tetrahydrofolate salvage cycle, but not with folate cycle-related gene sets (data not shown). […] Five central enzymes control the multi-step conversion of dietary folate into 5,10-methylene-THF (5,10-CH2 THF) before its reduction to 5-methyl-THF (5-CH3 THF) and recycling to THF. […] Finally, we abrogated Mthfr expression in primary murine MLL-AF9-driven AML cells using two Mthfr-directed shRNAs before treatment of engrafted mice with JQ1 (data not shown).

AML cells = assay: Apoptosis in response to OTX015 upon folic acid withdrawal; type: cell-based, human
Description: as §2

U937 cells = assay: OTX015 sensitivity after EED, EHMT1, SETDB1 hairpins; type: cell-based, human; settings: hairpins reducing EED, EHMT1 and SETB1 protein
[6] = tested on: MLL-AF9-transformed Mthfr knockout primary murine cells; assay: OTX015 resistance after Spi1 knockdown in Mthfr knockout cells; type: cell-based
U937 cell colonies = assay: Colony formation assay with OTX015 at reduced folic acid; type: cell-based, human; settings: 125-fold decrease in folic acid (1 mg/L to 0.008 mg/L)
Description: as §2

[7] = tested on: MYC transcriptional program; assay: RNA sequencing and gene set enrichment after OTX015 for 24 hours; type: cell-based, human; settings: IMS-M2 and U937; irrespective of folate status; FDR<0.25
IMS-M2 and U937 cells [8] = assay: OTX015 resistance after SPI1 knockdown with folate withdrawal or MTHFR suppression; type: cell-based, human; settings: SPI1 depletion; folate cycle disturbed or MTHFR suppressed
Description: To explore functionally whether SPI1 transcriptional program activation induced by folate cycle disruption promotes resistance to BRD4 inhibition, we knocked down SPI1 in IMS-M2 and U937 cells before folate withdrawal or MTHFR suppression (FIGS. 5F and 5G).

IMS-M2 AML cells = assay: OTX015 sensitivity after shRNA knockdown of folate cycle enzymes; type: cell-based, human; settings: for increase of IC50 of OTX015: average
CDK7 = CDK7 (Homo sapiens, UniProt P50613); settings: Table 1, Kwiatkowski et al. (2014); cited from earlier work
CDK7, sequence (P50613 whole entry): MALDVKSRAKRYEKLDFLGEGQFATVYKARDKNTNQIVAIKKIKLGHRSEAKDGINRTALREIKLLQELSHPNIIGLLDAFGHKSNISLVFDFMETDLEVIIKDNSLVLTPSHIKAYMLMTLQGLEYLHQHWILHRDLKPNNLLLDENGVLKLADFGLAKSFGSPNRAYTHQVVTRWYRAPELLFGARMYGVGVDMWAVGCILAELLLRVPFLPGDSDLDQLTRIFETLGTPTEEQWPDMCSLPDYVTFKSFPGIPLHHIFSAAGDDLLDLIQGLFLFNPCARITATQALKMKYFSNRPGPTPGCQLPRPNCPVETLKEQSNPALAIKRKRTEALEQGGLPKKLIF
CDK7, sequence (P51946 whole entry partner): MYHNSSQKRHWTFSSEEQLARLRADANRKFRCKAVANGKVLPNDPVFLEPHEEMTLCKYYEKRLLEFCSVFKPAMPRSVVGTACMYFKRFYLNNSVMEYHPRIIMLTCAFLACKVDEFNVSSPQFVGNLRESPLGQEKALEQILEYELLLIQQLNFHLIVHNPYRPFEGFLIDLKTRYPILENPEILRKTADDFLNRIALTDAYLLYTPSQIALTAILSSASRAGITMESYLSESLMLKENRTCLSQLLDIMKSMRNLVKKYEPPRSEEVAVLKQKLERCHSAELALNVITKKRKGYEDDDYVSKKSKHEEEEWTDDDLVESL

[9] = tested on: KG1a, U937 and IMS-M2 cells; assay: OTX015 sensitivity with SAH supplementation; type: cell-based, human
Description: We next used metabolism profiling to characterize the effect of folate pathway alteration on global cell metabolism in U937 cells. […] ShRNA-mediated MTHFR depletion induced a similar increase in SAH levels as that observed upon folate withdrawal in AML cell lines U937 and IMS-M2 (data not shown).

[10] = folic acid-starved media versus standard media, panel of AML cell lines

Compound: CN1c2c(nc(N)[nH]c2=O)NCC1CNc1ccc(C(=O)N[C@@H](CCC(=O)O)C(=O)O)cc1 (stereo partly drawn) [5-CH3 THF, 5-methyltetrahydrofolate]
- effect on cytotoxicity of OTX015 (fold change of IC50, 5 days) (IMS-M2 and U937 cells [1]): restored a cytotoxic effect of OTX015
- effect on response to OTX015 (fold change of IC50, 5 days) ([2]; 50 μM 5-CH3 THF, 677 TT or 1298 CC clones versus wild-type): substantially enhanced response to OTX015
- effect on response to OTX015 (IC90, 5 days) ([3]; 50 μM 5-CH3 THF, three patient samples with altered MTHFR genotype): sensitized to OTX015

Compound: Cc1sc2c(c1C)C(c1ccc(Cl)cc1)=N[C@@H](CC(=O)OC(C)(C)C)c1nnc(C)n1-2 [JQ1, tert-butyl 2-[(9S)-7-(4-chlorophenyl)-4,5,13-trimethyl-3-thia-1,8,11,12-tetrazatricyclo[8.3.0.02,6]trideca-2(6),4,7,10,12-pentaen-9-yl]acetate]
- inhibition of BRD4 (BRD4): potently inhibited
- effect of gene knockout on cells treated with JQ1 (OCI-AML2 cells; knockout of EED, EIMT1 and SETDB1, 2 weeks): rescued cells from JQ1
- effect of gene knockout on cells treated with JQ1 (OCI-AML2 cells; knockout of KDMIA, JMJDIC and KDM3B): enhanced cell sensitivity to JQ1
- AML cell line sensitivity [4]: significantly dampened
- leukemic burden (MLL-AF9-driven AML cells; animals transplanted with Mthfr-depleted (shRNA) blasts, JQ1 treatment): not significantly decreased
- sensitivity of leukemic burden to JQ1 (MLL-AF9-driven AML cells; control shRNA counterparts): striking sensitivity
- sensitivity to JQ1 (GFP-positive MLL-AF9 leukemic cells in bone marrow) (MLL-AF9-driven AML cells; loss of a single copy of Mthfr, 50 mg/kg JQ1 for 7 days): sufficient to attenuate sensitivity
- anti-leukemic activity (MLL-AF9-driven AML cells; mice fed no folate diet versus regular diet): markedly attenuated
- overall survival after JQ1 treatment (MLL-AF9-driven AML cells; mice injected with Mthfr-depleted cells versus control leukemic cells): significantly shorter

Compound: Cc1sc2c(c1C)C(c1ccc(Cl)cc1)=N[C@@H](CC(=O)Nc1ccc(O)cc1)c1nnc(C)n1-2 [OTX015]
- response to increasing doses of OTX015 ([5]; MTHFR suppression): substantially weakened the response
- colony number upon OTX015 treatment ([5]; MTHFR-depleted versus shCT-infected cells): significant increase in colony number
- apoptosis in response to OTX015 (AML cells): decrease in apoptosis
- OTX015 sensitivity (U937 cells): markedly alleviated OTX015 sensitivity
- resistance to OTX015 [6]: abrogated resistance to OTX015
- number of colonies in presence of OTX015 (U937 cell colonies): significantly increased the number of U937 cell colonies
- enrichment of MYC gene sets in genes suppressed by OTX015 [7]: highly enriched
- resistance to OTX015 ([4]; folic acid starvation, KG1a, IMS-M2, U937): consistently enhanced resistance
- area under curve (AUC) [4, 10]: significantly increased
- half-maximal inhibitory concentration (IC50) [4, 10]: significantly increased
- resistance to OTX015 ([4]; phenylalanine and histidine starvation): increased resistance to OTX015 in a subset of AML cell lines
- number of colonies upon OTX015 treatment ([2]; 677 TT and 1298 CC homozygous versus wild-type clones, 1 μM OTX015): substantially higher
- response to OTX015 (IC90, 5 days) ([3]; 16 samples, homozygous and compound heterozygous MTHFR genotype versus wild-type and heterozygous): responded significantly less
- IC50 ([3]; folic acid withdrawal): markedly increased
- OTX015 resistance (IMS-M2 and U937 cells [8]): significantly reduced OTX015 resistance
- increase of IC50 of OTX015 (IMS-M2 AML cells; hairpins targeting DHFR and DHFR2): 3 fold
- increase of IC50 of OTX015 (IMS-M2 AML cells; hairpins targeting MTHFR): 7 fold
- response to OTX015 (IMS-M2 AML cells; hairpins targeting SHMT1 and MTR): did not significantly alter response

Compound: CC(C)CC(=O)Nc1[nH]nc2c1CN(C(=O)C1CCN(C)CC1)C2(C)C [PHA-793887]
- inhibitory activity toward CDK7 relative to other CDKs (CDK7): lower inhibitory activity toward CDK7 than toward at least one other CDK

Compound: CC[C@H](CO)Nc1nc(NCc2ccccc2)c2ncn(C(C)C)c2n1 [Roscovitine]
- inhibitory activity toward CDK7 relative to other CDKs (CDK7): lower inhibitory activity toward CDK7 than toward at least one other CDK

Compound: Nc1ncnc2c1ncn2[C@@H]1O[C@H](CSCC[C@H](N)C(=O)O)[C@@H](O)[C@H]1O [SAH, S-adenosylhomocysteine]
- cytoprotective effect of SAH against OTX015 ([9]; methionine depleted 300-fold, IMS-M2 cells): enhanced the cytoprotective effect of SAH against OTX015
- resistance to OTX015 with SAH ([9]; methionine depleted, U937 and KG1a cells): even greater resistance to OTX015 than folate restriction alone

Compound: CN(C)C/C=C/C(=O)Nc1ccc(C(=O)Nc2cccc(Nc3ncc(Cl)c(-c4c[nH]c5ccccc45)n3)c2)cc1 [THZ-1]
- AML cell line sensitivity [4]: significantly dampened

Compound: CN1CC[C@H](c2c(O)cc(O)c3c(=O)cc(-c4ccccc4Cl)oc23)[C@H](O)C1 [flavopiridol]
- inhibitory activity toward CDK7 relative to other CDKs (CDK7): lower inhibitory activity toward CDK7 than toward at least one other CDK
